Data from US20260364184A1, “COMPOUND BASED ON OXOISOINDOLINYL-SUBSTITUTED TETRAHYDROPYRIMIDINE-DIONE AND USE THEREOF” (GLUETACS THERAPEUTICS (SHANGHAI) CO., LTD., priority 2023, published 2026).

Experiments:
[1] = system: AKT; assay: Western blot degradation of AKT; assay type: cell-based; settings: hPBMC Cell; 24 hours
Procedure: Conventional Western blot assay was performed to evaluate the effects of the compounds of the present disclosure on the expression of target proteins in cells.
(1) Cell Seeding and Protein Harvesting: The selected cells were processed according to the cell seeding procedure and protein harvesting procedure in Table II-2.
(2) To the collected supernatant, 5×SDS sample loading buffer was added, followed by denaturation at 95 °C for 5 minutes. The denatured samples were then separated by SDS-PAGE electrophoresis on a polyacrylamide gel. Proteins were transferred to a nitrocellulose membrane (0.45 μm NC membrane), blocked with blocking buffer at room temperature for 1 hour, and subjected to antibody incubation and development procedures according to the antibody manufacturer's instructions (Cell Signaling Technology).
Half-Maximal Degradation Concentration value (the drug concentration required for degrading proteins by 50%, abbreviated as DC50) reads method: comparing the grayscale values of Western blot bands from drug-treated samples with those from blank DMSO-treated controls, and identifying the drug concentration range at which the grayscale value is half that of the DMSO-treated control bands.
DC50 values can be calculated using ImageJ software to measure grayscale values of Western blot bands from drug-treated samples. The concentration-response curve is fitted to estimate the drug concentration corresponding to half the grayscale value.
Target protein remaining (%) refers to the percentage of target protein remaining in cells after treatment with protein degrader compounds.
Calculation method for target protein remaining (%): Use ImageJ software to measure grayscale values of Western blot bands from drug (protein degrader)-treated samples. The grayscale value of drug-treated bands is divided by that of internal control protein bands, and the resulting quotient is normalized to obtain the relative percentage of remaining target protein after protein degrader treatment.
Target protein degradation rate (%)=1−target protein remaining (%).

[2] = system: Human neuroblastoma cell line (SK-N-AS); assay: Inhibition of SK-N-AS cell proliferation (CellTiter luminescent viability); assay type: cell-based; settings: Table II2, EZH2 inhibitor-based, 96 hours
Procedure: (§1) The tumor cells used herein were cultured in a cell culture medium listed in table 3 at 37 °C in an incubator with 5% CO2. Prior to experimentation, all cell lines used were correctly identified by STR profiling, and tested negative for mycoplasma contamination using a mycoplasma detection kit through routine screenings.
(§2) The IC50 values of the compounds of the present disclosure (including the compounds in Table 1, Table 2, and Examples 1-468) were determined using the CellTiter-Meiluncell Luminescent Cell Viability Assay Kit from Dalian Meilun Biotech Co., Ltd. The detailed procedure is as follows: Tumor cells were seeded in 96-well cell culture plates at the densities specified in Table 4. On the following day, the test compounds of the present disclosure were subjected to serial dilution. The dilution can be performed according to one of the following two methods: • (1) The first dilution method: The test compounds of the present disclosure (including the compounds in Table 1, Table 2, and Examples 1-468) were subjected to 5-fold serial dilutions starting from a highest concentration of 2000 μM, resulting in a total of 9 concentrations from high to low (2000, 400, 80, 16, 3.2, 0.64, 0.128, 0.0256, 0.00512 μM). Subsequently, 0.5 μL of the test compound dilution was transferred into the 96-well plate containing the cells, with each well containing 100 μL of cell culture medium. […] Into the 96-well plate, the diluted test compounds and corresponding detection reagents were added, resulting in final test compound concentrations of 500 nM and 10 nM, respectively. The experimental procedure is described below using the diluted 2 μM test compound as an example.
(§3) 0.5 μL of the aforementioned diluted compound of the present disclosure (including the compounds in Table 1, Table 2, and Examples 1-468) was added to the seeded cells in 100 μL of medium, yielding a final test compound concentration of 10 nM. After the cells were treated with the compounds of the present disclosure for a specified period, the cell viability assay reagent was added to the culture medium according to the kit's instructions to determine cell viability. […] All controls were treated using the same procedure as the compounds of the present disclosure. The growth inhibition curves for the compounds of the present disclosure were plotted using Prism GraphPad software, and the IC50 values were calculated therefrom.

[3] = system: Human malignant melanoma cell line (A375); assay: Inhibition of A375 cell proliferation (CellTiter luminescent viability); settings: A-375, Table III (II1), EZH2 inhibitor-based, 96 hours; for inhibition at 0.01 µM: A375, 10 nM, read-out: Inhibition Rate at 10 nM (%); for inhibition at 0.5 µM: A375, 500 nM, read-out: Inhibition Rate at 500 nM (%)
Procedure: as §1, §2, §3

Row | SMILES | Degradation of substrate protein AKT (substrate protein remaining %) [1] | other results
1 | Cn1ncc(Cl)c1-c1cc(C(=O)N[C@H](CNCc2ccc3c(c2)C(=O)N(N2CCC(=O)NC2=O)C3=O)Cc2ccc(F)c(F)c2)oc1Cl [GT-08579, (S)-5-chloro-4-(4-chloro-1-methyl-1H-pyrazol-5-yl)-N-(1-(3,4-difluorophenyl)-3-(((2-(2,4-dioxotetrahydropyrimidin-1(2H)-yl)-1,3-dioxoisoindolin-5-yl)methyl)amino)propan-2-yl) furan-2-carboxamide] | A (0%≤substrate protein remaining %≤80%) | –
2 | Cn1ncc(Cl)c1-c1cc(C(=O)N[C@H](CNCc2ccc3c(c2)CN(N2CCC(=O)NC2=O)C3=O)Cc2cccc(F)c2)sc1Cl [GT-08572, (S)-5-chloro-4-(4-chloro-1-methyl-1H-pyrazol-5-yl)-N-(1-(((2-(2,4-dioxotetrahydropyrimidin-1(2H)-yl)-1-oxoisoindolin-5-yl)methyl)amino)-3-(3-fluorophenyl)propan-2-yl)thiophene-2-carboxamide] | A (0%≤substrate protein remaining %≤80%) | –
3 | Cn1ncc(Cl)c1-c1cc(C(=O)N[C@@H](Cc2ccc(F)c(F)c2)CN2CCN(Cc3ccc4c(c3)CN(N3CCC(=O)NC3=O)C4=O)CC2)oc1Cl [GT-08575, (S)-5-chloro-4-(4-chloro-1-methyl-1H-pyrazol-5-yl)-N-(1-(3,4-difluorophenyl)-3-(4-((2-(2,4-dioxotetrahydropyrimidin-1(2H)-yl)-1-oxoisoindolin-5-yl)methyl)piperazin-1-yl)propan-2-yl) furan-2-carboxamide] | A (0%≤substrate protein remaining %≤80%) | –
4 | Cn1ncc(Cl)c1-c1cc(C(=O)N[C@@H](Cc2cccc(F)c2)CN2CCN(CC3CCN(c4ccc5c(c4)C(=O)N(N4CCC(=O)NC4=O)C5=O)CC3)CC2)sc1Cl [GT-08586, (S)-5-chloro-4-(4-chloro-1-methyl-1H-pyrazol-5-yl)-N-(1-(4-((1-(2-(2,4-dioxotetrahydropyrimidin-1(2H)-yl)-1,3-dioxoisoindolin-5-yl)piperidin-4-yl)methyl)piperazin-1-yl)-3-(3-fluorophenyl)propan-2-yl)thiophene-2-carboxamide] | A (0%≤substrate protein remaining %≤80%) | –
5 | Nc1ncccc1-c1nc2ccc(-c3ccccc3)nc2n1-c1ccc(C2(NCC3CCN(c4ccc5c(c4)C(=O)N(N4CCC(=O)NC4=O)C5=O)CC3)CCC2)cc1 [GT-08583, 5-(4-(((1-(4-(2-(2-aminopyridin-3-yl)-5-phenyl-3H-imidazo[4,5-b]pyridin-3-yl)phenyl)cyclobutyl)amino)methyl)piperidin-1-yl)-2-(2,4-dioxotetrahydropyrimidin-1(2H)-yl)isoindoline-1,3-dione] | A (0%≤substrate protein remaining %≤80%) | –
6 | Cn1ncc(Cl)c1-c1cc(C(=O)N[C@H](CNCc2ccc3c(c2)C(=O)N(N2CCC(=O)NC2=O)C3=O)Cc2cccc(F)c2)sc1Cl [GT-08577, (S)-5-chloro-4-(4-chloro-1-methyl-1H-pyrazol-5-yl)-N-(1-(((2-(2,4-dioxotetrahydropyrimidin-1(2H)-yl)-1,3-dioxoisoindolin-5-yl)methyl)amino)-3-(3-fluorophenyl)propan-2-yl)thiophene-2-carboxamide] | A (0%≤substrate protein remaining %≤80%) | –
7 | Nc1ncccc1-c1nc2ccc(-c3ccccc3)nc2n1-c1ccc(C2(NCc3ccc4c(c3)C(=O)N(N3CCC(=O)NC3=O)C4=O)CCC2)cc1 [GT-08578, 5-(((1-(4-(2-(2-aminopyridin-3-yl)-5-phenyl-3H-imidazo[4,5-b]pyridin-3-yl)phenyl)cyclobutyl)amino)methyl)-2-(2,4-dioxotetrahydropyrimidin-1(2H)-yl)isoindoline-1,3-dione] | A (0%≤substrate protein remaining %≤80%) | –
8 | CCN(c1cc(-c2ccc(N3CCN(C4CCN(Cc5ccc6c(c5)C(=O)N(N5CCC(=O)NC5=O)C6=O)CC4)CC3)cc2)cc(C(=O)NCc2c(C)cc(C)[nH]c2=O)c1C)C1CCOCC1 [GT-08515, N-((4,6-dimethyl-2-oxo-1,2-dihydropyridin-3-yl)methyl)-4′-(4-(1-((2-(2,4-dioxotetrahydropyrimidin-1(2H)-yl)-1,3-dioxoisoindolin-5-yl)methyl)piperidin-4-yl)piperazin-1-yl)-5-(ethyl(tetrahydro-2H-pyran-4-yl)amino)-4-methyl-[1,1′-biphenyl]-3-carboxamide] | – | inhibition at 0.01 µM ([2]; 10 nM, read-out: Inhibition Rate at 10 nM (%)): 20 to 30%; inhibition at 0.5 µM ([2]; 500 nM, read-out: Inhibition Rate at 500 nM (%)): 20 to 30%; inhibition at 0.01 µM [3]: 20 to 30%; inhibition at 0.5 µM [3]: 20 to 30%
9 | Cn1ncc(Cl)c1-c1cc(C(=O)N[C@@H](Cc2ccc(F)c(F)c2)CN2CCN(Cc3ccc4c(c3)C(=O)N(N3CCC(=O)NC3=O)C4=O)CC2)oc1Cl [GT-08580, (S)-5-chloro-4-(4-chloro-1-methyl-1H-pyrazol-5-yl)-N-(1-(3,4-difluorophenyl)-3-(4-((2-(2,4-dioxotetrahydropyrimidin-1(2H)-yl)-1,3-dioxoisoindolin-5-yl)methyl)piperazin-1-yl)propan-2-yl) furan-2-carboxamide] | A (0%≤substrate protein remaining %≤80%) | –
10 | CCN(c1cc(-c2ccc(CN3CCN(Cc4ccc5c(c4)CN(N4CCC(=O)NC4=O)C5=O)CC3)cc2)cc(C(=O)NCc2c(C)cc(C)[nH]c2=O)c1C)C1CCOCC1 [GT-08508, N-((4,6-dimethyl-2-oxo-1,2-dihydropyridin-3-yl)methyl)-4′-((4-((2-(2,4-dioxotetrahydropyrimidin-1(2H)-yl)-1-oxoisoindolin-5-yl)methyl)piperazin-1-yl)methyl)-5-(ethyl(tetrahydro-2H-pyran-4-yl)amino)-4-methyl-[1,1′-biphenyl]-3-carboxamide] | – | inhibition at 0.01 µM [3]: 20 to 30%; inhibition at 0.5 µM [3]: 20 to 30%
11 | Cn1ncc(Cl)c1-c1cc(C(=O)N[C@@H](Cc2cccc(F)c2)CN2CCN(Cc3ccc4c(c3)C(=O)N(N3CCC(=O)NC3=O)C4=O)CC2)sc1Cl [GT-08581, (S)-5-chloro-4-(4-chloro-1-methyl-1H-pyrazol-5-yl)-N-(1-(4-((2-(2,4-dioxotetrahydropyrimidin-1(2H)-yl)-1,3-dioxoisoindolin-5-yl)methyl)piperazin-1-yl)-3-(3-fluorophenyl)propan-2-yl)thiophene-2-carboxamide] | A (0%≤substrate protein remaining %≤80%) | –
12 | CCN(c1cc(-c2ccc(CN3CCOCC3)cc2)cc(C(=O)NCc2c(C)cc(C)[nH]c2=O)c1C)C1CCOCC1 [Tazemetostat, reference compound] | – | inhibition at 0.01 µM [3]: 0 to 5%; inhibition at 0.5 µM [3]: 0 to 5%
13 | Cn1ncc(Cl)c1-c1cc(C(=O)N[C@H](CNCC2CCN(c3ccc4c(c3)C(=O)N(N3CCC(=O)NC3=O)C4=O)CC2)Cc2cccc(F)c2)sc1Cl [GT-08582, (S)-5-chloro-4-(4-chloro-1-methyl-1H-pyrazol-5-yl)-N-(1-(((1-(2-(2,4-dioxotetrahydropyrimidin-1(2H)-yl)-1,3-dioxoisoindolin-5-yl)piperidin-4-yl)methyl)amino)-3-(3-fluorophenyl)propan-2-yl)thiophene-2-carboxamide] | A (0%≤substrate protein remaining %≤80%) | –
